In publication PMC10325900, “A conserved motif in the disordered linker of human MLH1 is vital for DNA mismatch repair and its function is diminished by a cancer family mutation” (Nucleic Acids Research, 2023):
No end group written: not given here.

Legend:
[1] = system: DNA mismatch repair reaction of MMR-proficient HEK293 cell extract; experiment: MMR competition test with nuclear extract of MMR-proficient HEK293 cells; assay type: biochemical, human; settings: up to 75 μM ConMot-32 peptide
Protocol: Mismatch repair activity was assessed as described in detail before ([79],[81]) (Supplementary Figure S3). […] Mismatched DNA plasmid substrate (Supplementary Figure S3) prepared according to previously published procedures ([81–83]) was added, and reactions in a final volume of 25 μl were incubated at 37°C for 15 min. Repair efficiency was scored by purifying the mismatched DNA plasmid from the reaction and assessing the fraction of homoduplex sequence by restriction digestion of the mismatched site using EcoRV. The substrate was additionally linearized with AseI.
For complementation assays with peptide, the indicated peptide(s) were used at stock concentrations of 50 or 500 μM in HEPES–KOH 20 mM pH 7.6 and supplemented to the MMR reactions. […]
Figure 4. […] (C) The concentration-dependence of the MMR-activating effect of the ConMot-32 peptide observed in (B) was measured over a concentration range from 1–75 μM. […] Into this diagram, the average MMR activities (and standard deviations) measured in >3 of the experiment exemplarily shown in C were introduced as bars at ConMot-32 peptide concentrations of 1, 2.5, 7.5, 18 and 75 μM. […]
In parallel, the single- strand nick is ligated. […] 40- 80% absolute repair, determined as signal intensities of the repair bands divided by sum of […]

MLH1-PMS2 = experiment: Comparison of MMR restoration with theoretical binding curves of peptide to protein; design: species or system human; settings: theoretical binding curves at 11.1 nM MLH1; not a direct binding measurement; read-out: KD whose theoretical fraction of peptide binding to a protein corresponds to the degree of MMR restoration
Protocol: Figure 4. Reaction of DNA mismatch repair to addition of ConMot peptide. (A) Nuclear extract of MLH1-proficient HEK293 cells was used for performing the DNA mismatch repair reaction. Four reactions were undertaken, with two reactions supplemented with either 7.5 μM or 75 μM ConMot-32 peptide. A negative control reaction was performed by omitting the 37°C repair incubation. (B) MMR reactions were performed with nuclear extract of MLH1-deficient HEK293T cells supplemented with extract of cells transfected either with wildtype MLH1-PMS2 (positive control) or with MLH1-ΔConMot-PMS2. […] (C) The concentration-dependence of the MMR-activating effect of the ConMot-32 peptide observed in (B) was measured over a concentration range from 1–75 μM. […] Into this diagram, the average MMR activities (and standard deviations) measured in >3 of the experiment exemplarily shown in C were introduced as bars at ConMot-32 peptide concentrations of 1, 2.5, 7.5, 18 and 75 μM.
We investigated the effect of the ConMot peptide more closely by titrating the required peptide concentrations for activation. We determined that the mismatch repair reactions performed in this study contained approximately 280 fmol MLH1 (Supplementary Figure S4A and B), which is in good agreement with previous quantifications of MLH1-PMS2 in cells and extracts ([96]). […]
B. Immunoblot band intensities were determined. […]

[2] = 33 μM peptide, 20 mM Na-phosphate pH 7.2, 25–95°C, detection at 222 nm
Protocol: For the CD analysis, 33 μM ConMot peptide was used in 20 mM Na-phosphate buffer pH 7.2, 20°C. Three scans were performed with 190–300 nm wavelength, using a 1 mm light path. A blank was measured with buffer. For the melting analysis, 33 μM ConMot peptide was used in 20 mM Na-phosphate buffer pH 7.2. Detection was at 222 nm, temperature was scanned from 25–95°C. A blank with buffer only was subtracted.

SGSSDKVYAHQMVRTDSREQKLDAFLQPLSKP [ConMot-32]
interference with regular DNA mismatch repair ([1]; listed as ConMot peptide): did not detectably interfere | interference with regular DNA mismatch repair ([1]; listed as ConMot-peptide): not attenuated | Kd (MLH1-PMS2): ~7.5 µM | secondary structure formation by melting analysis [2]: Neither investigation provided evidence for secondary structure formation
